Measurements from patent publication US9700509B2, “Solutions of lipophilic substances, especially medicinal solutions” (UNIVERSITÄT REGENSBURG, priority 2008, dated 2017).

Experiment: Dissolution in polyethylene glycol 400 (appearance of solution, microscope)
Assay type: physicochemical
Details: 20 mg phospholipid DHGPC in 1 ml polyethylene glycol 400, 21° C.
Source text: Polyethylene glycol 400 served as solvent. […] This was confirmed under a microscope.
Microscope images confirmed this.

For `CCCCCCC(=O)OC[C@H](COP(=O)([O-])OCC[N+](C)(C)C)OC(=O)CCCCCC` [DHGPC, diheptanoyl glycerophosphocholine], the appearance of solution was “clear solution”.
